The subject of this assay is recurrent/metastatic breast cancer. The experiment in a line: Inventor's previous clinical research, monotherapy of recurrent/metastatic breast cancer, liposome versus ordinary injection. It counts as in vivo, human. The following applies: control group, 14 mg/m^2 every 4 weeks. On the procedure:
The inventor's previous clinical research included mitoxantrone hydrochloride monotherapy in the treatment of recurrent/metastatic breast cancer. There were 30 cases in the experimental group and the control group respectively. […] The control group was given mitoxantrone hydrochloride injection in 14 mg/m^2, every 4 weeks as a cycle.

Counter-ions that a name gives are not always drawn.

The compound `O=C1c2c(O)ccc(O)c2C(=O)c2c(NCCNCCO)ccc(NCCNCCO)c21` [mitoxantrone hydrochloride injection, mitoxantrone hydrochloride] showed an ORR (2/30) of 6.7%. In addition, the DCR (9/30) stood at 30%. Under “30 cases”, this compound showed a PR of 2 cases.
